Assay results taken from patent publication US10124004B2, “Pyrido[3,4-d]pyrimidine derivative and pharmaceutically acceptable salt thereof” (Teijin Pharma Limited, priority 2015, dated 2018).
Like-named read-outs stand apart in the source and are kept apart here.

Assays:
CDK4/cyclin D3 = molecular target: T1, CDK4/cyclin D3 (Homo sapiens, UniProt P11802); assay: Human CDK4/cyclin D3 inhibitory activity (QS S Assist CDK4/Cyclin D3_FP Kit, IMAP fluorescence polarization); type: biochemical
T1 construct: purchased Carna Biosciences, Inc. QS S Assist CDK4/Cyclin D3_FP Kit
Method in brief: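 IMAP fluorescence polarization kit: CDK4/cyclin D3 at 12.5-25 ng/well with kit ATP/substrate/metal mix in 20 mM HEPES pH 7.4, 0.01% Tween20, 2 mM DTT, 45 min at room temperature. FP read at 485/535 nm after 30 min binding; IC50 from dose-response fit of percent inhibition versus enzyme and no-enzyme controls.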

CDK2/cyclin A2 = molecular target: T2, CDK2/cyclin A2 (Homo sapiens, UniProt P24941); assay: Human CDK2/cyclin A2 inhibitory activity (QS S Assist CDK2/Cyclin A2_FP Kit, IMAP fluorescence polarization); type: biochemical
T2 construct: purchased Carna Biosciences, Inc. QS S Assist CDK2/Cyclin A2_FP Kit
Method in brief: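 Kinase activity read as fluorescence polarization (485/535 nm) after phosphorylated fluorescent substrate binds IMAP reagent (30 min, RT, dark). Enzyme (2.5 ng/well) reacted 60 min at RT with ATP/substrate/metal in HEPES pH 7.4 buffer with Tween 20 and DTT; no-enzyme wells define 0% activity; IC50 by curve fit.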

[1] = Human CDK4/cyclin D3 inhibitory activity, read-out: CDK4 Activity symbol
[2] = Human CDK2/cyclin A2 inhibitory activity, read-out: CDK2 Activity symbol
[3] = 50% inhibitory concentration against CDK4/cyclin D3, given as class symbol
[4] = 50% inhibitory concentration against CDK2/cyclin A2, given as class symbol

T1 sequence (P11802 whole entry): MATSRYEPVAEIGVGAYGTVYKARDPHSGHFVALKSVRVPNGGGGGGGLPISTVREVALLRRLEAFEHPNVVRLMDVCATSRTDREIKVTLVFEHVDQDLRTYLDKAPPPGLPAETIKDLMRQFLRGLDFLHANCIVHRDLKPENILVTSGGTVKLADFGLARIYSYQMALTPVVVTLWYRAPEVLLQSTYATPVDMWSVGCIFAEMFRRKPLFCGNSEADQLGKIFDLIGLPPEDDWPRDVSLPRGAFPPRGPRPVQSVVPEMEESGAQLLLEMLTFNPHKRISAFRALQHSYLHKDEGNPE
T1 sequence (P30281 whole entry partner): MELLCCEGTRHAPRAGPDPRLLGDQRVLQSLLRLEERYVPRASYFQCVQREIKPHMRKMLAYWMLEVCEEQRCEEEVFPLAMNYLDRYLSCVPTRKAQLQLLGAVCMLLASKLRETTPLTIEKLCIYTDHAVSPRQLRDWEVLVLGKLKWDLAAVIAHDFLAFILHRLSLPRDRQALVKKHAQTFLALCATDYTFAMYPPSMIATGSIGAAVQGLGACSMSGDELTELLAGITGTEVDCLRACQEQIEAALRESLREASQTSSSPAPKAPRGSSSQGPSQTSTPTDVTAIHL

Structure (SMILES) | IC50 (CDK4/cyclin D3; [1]) | IC50 (CDK2/cyclin A2; [2]) | IC50 (CDK4/cyclin D3; [3]) | IC50 (CDK2/cyclin A2; [4])
CC(=O)c1cc2cnc(Nc3ccc(N4CCNCC4)nn3)nc2c(NC(C)C)n1 [Compound 328] | < 0.01 µM | ≥ 0.1 µM |  | 
CC(C)Nc1nc([C@@H](C)O)cc2cnc(Nc3ccc(N4C(=O)CNCC4C)cn3)nc12 (some centres unmarked) [Compound 1033] |  |  | < 0.01 µM | ≥ 0.1 µM
C[C@@H](O)c1cc2cnc(Nc3ccc(N4CCNCC4=O)cn3)nc2c(N[C@H]2CCCOC2)n1 [Compound 347] | < 0.01 µM | ≥ 0.1 µM |  | 
CC(C)Nc1nc([C@@H](C)O)cc2cnc(Nc3ccc(C(=O)N4CCN(C)CC4)cn3)nc12 [Compound 1160] |  |  | < 0.01 µM | 0.01 to 0.1 µM
CO[C@H](C)c1cc2cnc(Nc3ccc(N4CCN(CC(=O)O)CC4C(F)(F)F)cn3)nc2c(NC(C)C)n1 (some centres unmarked) [Compound 891] |  |  | 0.01 to 0.1 µM | ≥ 0.1 µM
CC(C)Nc1nc(C(F)F)cc2cnc(Nc3ccc(C(=O)N4CCOCC4)cn3)nc12 [Compound 169] | < 0.01 µM | 0.01 to 0.1 µM |  | 
CC(C)Nc1nc(C(F)F)cc2cnc(Nc3ccc(C(=O)NCCO)cn3)nc12 [Compound 109] | 0.01 to 0.1 µM | ≥ 0.1 µM |  | 
CC(C)Nc1nc([C@@H](C)O)cc2cnc(Nc3ccc(OCCN(C)C)cn3)nc12 [Compound 245] | < 0.01 µM | ≥ 0.1 µM |  | 
COCC(C)(C)Nc1nc([C@@H](C)O)cc2cnc(Nc3ccc(N4CCC(O)CC4)nn3)nc12 [Compound 202] | 0.01 to 0.1 µM | ≥ 0.1 µM |  | 
C[C@@H](O)c1cc2cnc(Nc3ccc(CN4CCCC(O)C4)cn3)nc2c(NC2CCC2)n1 (some centres unmarked) [Compound 1084] |  |  | < 0.01 µM | ≥ 0.1 µM
CC(C)Nc1nc(C(F)F)cc2cnc(Nc3ccc(C4CCN(S(C)(=O)=O)CC4)cn3)nc12 [Compound 179] | 0.01 to 0.1 µM | ≥ 0.1 µM |  | 
CC(=O)c1nc(NC(C)C)c2nc(Nc3ccc(N4CCNCC4=O)cn3)ncc2c1Cl [Compound 1031] |  |  | < 0.01 µM | ≥ 0.1 µM
CCCCNc1nc([C@@H](C)OC)cc2cnc(Nc3ccc(CN4CCNCC4)cn3)nc12 [Compound 854] |  |  | < 0.01 µM | ≥ 0.1 µM
COCC(C)(C)Nc1nc([C@@H](C)O)cc2cnc(Nc3ccc(N4CCNCC4)nn3)nc12 [Compound 212] | < 0.01 µM | ≥ 0.1 µM |  | 
C[C@@H](O)c1cc2cnc(Nc3ccc(N4CCN(C=O)CC4=O)cn3)nc2c(N[C@H]2CCCOC2)n1 [Compound 352] | < 0.01 µM | ≥ 0.1 µM |  | 
CC(C)Nc1nc(C(F)F)cc2cnc(Nc3ncc(N4CCNCC4)cn3)nc12 [Compound 163] | < 0.01 µM | ≥ 0.1 µM |  | 
CCCNc1nc([C@@H](C)OC)cc2cnc(Nc3ccc(N4CC5(CC(NC)C5)C4)cn3)nc12 [Compound 1008] |  |  | < 0.01 µM | ≥ 0.1 µM
CO[C@H](C)c1cc2cnc(Nc3ccc(CN4CCN(C5COC5)CC4)cn3)nc2c(NC(C)C)n1 [Compound 681] |  |  | 0.01 to 0.1 µM | ≥ 0.1 µM
COCC(C)(C)Nc1nc([C@@H](C)O)cc2cnc(Nc3ccc(N4CC[C@H](O)CC4=O)cn3)nc12 [Compound 268] | 0.01 to 0.1 µM | ≥ 0.1 µM |  | 
CC(C)Nc1nc([C@@H](C)O)cc2cnc(Nc3ccc(OCCN(C)C)nn3)nc12 [Compound 474] | < 0.01 µM | ≥ 0.1 µM |  | 

Structure (SMILES) | IC50 (CDK4/cyclin D3; [1]) | IC50 (CDK2/cyclin A2; [2]) | IC50 (CDK4/cyclin D3; [3]) | IC50 (CDK2/cyclin A2; [4])
CO[C@H](C)c1cc2cnc(Nc3ccc(CN4CCN(CCO)CC4)cn3)nc2c(N[C@@H](C)CO)n1 [Compound 915] |  |  | < 0.01 µM | ≥ 0.1 µM
CC(C)Nc1nc([C@@H](C)O)c(F)c2cnc(Nc3ccc(N4CCNCC4=O)cn3)nc12 [Compound 981] |  |  | < 0.01 µM | 0.01 to 0.1 µM
CO[C@H](C)c1cc2cnc(Nc3ccc(CN4CCNCC4)cn3)nc2c(NC2CCOCC2)n1 [Compound 291] | < 0.01 µM | ≥ 0.1 µM |  | 
CCNc1nc(C2(C)COC2)cc2cnc(Nc3ccc(CN4CCNCC4)cn3)nc12 [Compound 1107] |  |  | < 0.01 µM | ≥ 0.1 µM
CC(C)Nc1nc([C@@H](C)O)cc2cnc(Nc3ccc(N4CCN(CC(=O)N5CCCC5)CC4)nn3)nc12 [Compound 966] |  |  | < 0.01 µM | ≥ 0.1 µM
COCC(C)(C)Nc1nc([C@@H](C)O)cc2cnc(Nc3ccc(N4CCNCC4)cn3)nc12 [Compound 195, (R)-1-(8-(l-methoxy-2-methylpropan-2-ylamino)-2-(5-(piperazin-1-yl)pyridin-2-ylamino)pyrido[3,4-d]pyrimidin-6-yl)ethanol] | < 0.01 µM | ≥ 0.1 µM |  | 
CC(CO)Nc1nc(C(C)O)cc2cnc(Nc3ccc(N4CCNCC4)cn3)nc12 (centres unmarked) [Compound 41] | < 0.01 µM | ≥ 0.1 µM |  | 
CCNc1nc([C@@H](C)O)cc2cnc(Nc3ccc(CN4CCN(C[C@H](C)O)CC4)cn3)nc12 [Compound 976] |  |  | < 0.01 µM | ≥ 0.1 µM
C[C@@H](O)c1cc2cnc(Nc3ccc(N4CCNCC4)nn3)nc2c(NCC2CCOC2)n1 (some centres unmarked) [Compound 284] | < 0.01 µM | ≥ 0.1 µM |  | 
CO[C@H](C)c1cc2cnc(Nc3ccc4c(n3)CCN(CCO)C4)nc2c(N[C@H]2CCCOC2)n1 [Compound 1121] |  |  | < 0.01 µM | ≥ 0.1 µM
CC(C)Nc1nc([C@@H](C)O)cc2cnc(Nc3ccc(N4CCN(C(C)C)CCC4=O)cn3)nc12 [Compound 631] |  |  | < 0.01 µM | 0.01 to 0.1 µM
CCCNc1nc(C2CCOC2)cc2cnc(Nc3ccc(CN4CCNCC4)cn3)nc12 (centres unmarked) [Compound 1005] |  |  | < 0.01 µM | ≥ 0.1 µM
C[C@@H](O)c1cc2cnc(Nc3ccc(CN4CCC(O)CC4)cn3)nc2c(NCC2CCOCC2)n1 [Compound 1065] |  |  | < 0.01 µM | ≥ 0.1 µM
CC(C)Nc1nc(C(F)F)cc2cnc(Nc3ccc(-c4cnn(C)c4)cn3)nc12 [Compound 188] | 0.01 to 0.1 µM | ≥ 0.1 µM |  | 
CCCNc1nc(C(F)F)cc2cnc(Nc3ccc(N4CCNCC4=O)cn3)nc12 [Compound 821] |  |  | < 0.01 µM | 0.01 to 0.1 µM
C[C@@H](O)c1cc2cnc(Nc3ccc(CN4CCN(CCO)CC4)cn3)nc2c(NCCC(F)(F)F)n1 [Compound 1214] |  |  | < 0.01 µM | ≥ 0.1 µM
COC[C@@H](C)Nc1nc([C@@H](C)O)cc2cnc(Nc3ccc(OCCN(C)C)cn3)nc12 [Compound 785] |  |  | < 0.01 µM | ≥ 0.1 µM
CC(C)Nc1nc(C(C)O)cc2cnc(Nc3ccc(N4CCC(N)C(F)C4)nn3)nc12 (centres unmarked) [Compound 619] | < 0.01 µM | ≥ 0.1 µM |  | 
CO[C@H](C)c1cc2cnc(Nc3ccc(CN4CCc5nc(C)[nH]c5C4)cn3)nc2c(NC(C)C)n1 [Compound 277] | ≥ 0.1 µM | ≥ 0.1 µM |  | 
CC(C)Nc1nc([C@@H](C)O)cc2cnc(Nc3ccc(OCCNS(C)(=O)=O)cn3)nc12 [Compound 867] |  |  | < 0.01 µM | ≥ 0.1 µM

Structure (SMILES) | IC50 (CDK4/cyclin D3; [1]) | IC50 (CDK2/cyclin A2; [2]) | IC50 (CDK4/cyclin D3; [3]) | IC50 (CDK2/cyclin A2; [4])
CC(C)Nc1nc(C(F)F)cc2cnc(Nc3ccc(NS(C)(=O)=O)cn3)nc12 [Compound 88] | ≥ 0.1 µM | ≥ 0.1 µM |  | 
COCC(C)(C)Nc1nc(C(C)O)cc2cnc(Nc3ccc(N4CCNCC4)cn3)nc12 (centres unmarked) [Compound 29] | < 0.01 µM | ≥ 0.1 µM |  | 
CC1(c2cc3cnc(Nc4ccc(CN5CCNCC5)cn4)nc3c(N[C@H]3CCCOC3)n2)COC1 [Compound 884] |  |  | < 0.01 µM | ≥ 0.1 µM
CC(C)Nc1nc(C(F)F)cc2cnc(Nc3ccc(N4CCC(O)C4)cn3)nc12 (centres unmarked) [Compound 53] | < 0.01 µM | 0.01 to 0.1 µM |  | 
CO[C@@H](C)c1cc2cnc(Nc3ccc(N4CCNCC4)cn3)nc2c(NC(C)C)n1 [Compound 38] | < 0.01 µM | ≥ 0.1 µM |  | 
CC(C)Nc1nc(C(F)F)cc2cnc(Nc3ccc(OCCN4CCCC4=O)cn3)nc12 [Compound 103] | < 0.01 µM | ≥ 0.1 µM |  | 
CC(C)Nc1nc(C(F)F)cc2cnc(Nc3ccc(CN(C)C(N)=O)cn3)nc12 [Compound 185] | < 0.01 µM | 0.01 to 0.1 µM |  | 
CO[C@H](C)c1cc2cnc(Nc3ccc(N4CCN(C(C)C#N)CC4)nn3)nc2c(NC(C)C)n1 (some centres unmarked) [Compound 907] |  |  | < 0.01 µM | ≥ 0.1 µM
CC(O)c1cc2cnc(Nc3ccc(N4CCNCC4)cn3)nc2c(Nc2ccn[nH]2)n1 (centres unmarked) [Compound 27] | 0.01 to 0.1 µM | ≥ 0.1 µM |  | 
CC(C)NC(=O)CN1CCN(c2ccc(Nc3ncc4cc([C@@H](C)O)nc(NC(C)C)c4n3)nn2)CC1 [Compound 968] |  |  | < 0.01 µM | ≥ 0.1 µM
CO[C@H](C)c1cc2cnc(Nc3ccc(N4CCC(O)C4)nn3)nc2c(NC(C)C)n1 (some centres unmarked) [Compound 334] | 0.01 to 0.1 µM | ≥ 0.1 µM |  | 
CC(C)Nc1nc(C(F)F)cc2cnc(Nc3ccc(CN4CCNC(=O)C4)cn3)nc12 [Compound 131] | < 0.01 µM | 0.01 to 0.1 µM |  | 
CC(C)Nc1nc(C(F)F)cc2cnc(Nc3ccc(-c4cn[nH]c4)cn3)nc12 [Compound 209] | 0.01 to 0.1 µM | ≥ 0.1 µM |  | 
CCCNc1nc([C@@H](C)O)cc2cnc(Nc3ccc(CN4CC5CCC(C4)N5C)cn3)nc12 [Compound 1223] |  |  | < 0.01 µM | ≥ 0.1 µM
CN(C)CCOc1ccc(Nc2ncc3cc(C(F)F)nc(NC4CCCOC4)c3n2)nc1 (centres unmarked) [Compound 366] | < 0.01 µM | ≥ 0.1 µM |  | 
C[C@@H](O)c1cc2cnc(Nc3ccc(CN4CCNCC4)cn3)nc2c(NCC2CCOC2)n1 (some centres unmarked) [Compound 323] | < 0.01 µM | ≥ 0.1 µM |  | 
CC(C)Nc1nc([C@@H](C)O)cc2cnc(Nc3ccc(CN4CCNCC4=O)cn3)nc12 [Compound 262] | 0.01 to 0.1 µM | ≥ 0.1 µM |  | 
CC(C)Nc1nc(C(F)F)cc2cnc(Nc3ccc(OCCCN4CCCC4=O)cn3)nc12 [Compound 123] | 0.01 to 0.1 µM | ≥ 0.1 µM |  | 
